Results published in ChEMBL document CHEMBL4007427, “Inhibition of the Aldehyde Dehydrogenase 1/2 Family by Psoralen and Coumarin Derivatives” (J Med Chem, 2017).

Legend:
[1] = molecular target: T1, Retinal dehydrogenase 2 (Homo sapiens) (UniProt O94788); test: (§1) Inhibition of full length recombinant human ALDH1A2 expressed in Escherichia coli BL21(DE3) assessed as reduction in dehydrogenase activity by measuring NAD(P)H level preincubated for 2 mins followed by addition of propionaldehyde as substrate in presence of NAD+ by spectrophotometric method relative to control
T1 sequence (whole entry): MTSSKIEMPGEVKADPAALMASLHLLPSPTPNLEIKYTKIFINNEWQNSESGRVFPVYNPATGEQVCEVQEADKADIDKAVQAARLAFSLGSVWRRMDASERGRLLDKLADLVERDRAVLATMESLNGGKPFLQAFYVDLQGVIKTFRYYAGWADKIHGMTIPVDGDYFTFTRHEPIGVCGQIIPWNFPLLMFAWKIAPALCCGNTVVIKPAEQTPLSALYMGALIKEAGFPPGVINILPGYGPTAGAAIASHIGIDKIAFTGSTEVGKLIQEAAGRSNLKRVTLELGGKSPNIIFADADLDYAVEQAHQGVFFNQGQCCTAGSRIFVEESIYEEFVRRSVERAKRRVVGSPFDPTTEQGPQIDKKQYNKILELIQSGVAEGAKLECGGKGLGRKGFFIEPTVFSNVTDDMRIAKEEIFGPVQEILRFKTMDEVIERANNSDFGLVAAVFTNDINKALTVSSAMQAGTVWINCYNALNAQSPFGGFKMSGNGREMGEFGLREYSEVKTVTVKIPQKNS

[2] = molecular target: T2, Aldehyde dehydrogenase X, mitochondrial (Homo sapiens) (UniProt P30837); test: as §1, with “ALDH1B1” for “ALDH1A2”, “TunerDE3” for “BL21(DE3)”
T2 sequence (whole entry): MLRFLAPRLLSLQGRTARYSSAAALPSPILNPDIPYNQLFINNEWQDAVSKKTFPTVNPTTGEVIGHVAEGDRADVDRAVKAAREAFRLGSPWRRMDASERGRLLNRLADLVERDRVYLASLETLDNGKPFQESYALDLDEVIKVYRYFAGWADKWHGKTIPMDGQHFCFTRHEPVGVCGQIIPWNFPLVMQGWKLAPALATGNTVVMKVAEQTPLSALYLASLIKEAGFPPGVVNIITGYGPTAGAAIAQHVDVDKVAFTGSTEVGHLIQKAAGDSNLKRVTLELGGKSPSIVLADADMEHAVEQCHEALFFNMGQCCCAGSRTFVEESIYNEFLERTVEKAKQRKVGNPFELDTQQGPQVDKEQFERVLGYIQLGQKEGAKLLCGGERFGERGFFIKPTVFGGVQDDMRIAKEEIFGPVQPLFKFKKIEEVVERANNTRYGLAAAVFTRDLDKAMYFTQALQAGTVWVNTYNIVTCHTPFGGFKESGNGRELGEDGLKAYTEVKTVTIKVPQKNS

[3] = molecular target: T3, Aldehyde dehydrogenase 1A1 (Homo sapiens, UniProt P00352); test: Uncompetitive inhibition of full length recombinant human ALDH1A1 expressed in Escherichia coli BL21(DE3) using propionaldehyde as substrate in presence of varying levels NAD+ by Lineweaver-Burk plot analysis
T3 sequence (P00352 whole entry): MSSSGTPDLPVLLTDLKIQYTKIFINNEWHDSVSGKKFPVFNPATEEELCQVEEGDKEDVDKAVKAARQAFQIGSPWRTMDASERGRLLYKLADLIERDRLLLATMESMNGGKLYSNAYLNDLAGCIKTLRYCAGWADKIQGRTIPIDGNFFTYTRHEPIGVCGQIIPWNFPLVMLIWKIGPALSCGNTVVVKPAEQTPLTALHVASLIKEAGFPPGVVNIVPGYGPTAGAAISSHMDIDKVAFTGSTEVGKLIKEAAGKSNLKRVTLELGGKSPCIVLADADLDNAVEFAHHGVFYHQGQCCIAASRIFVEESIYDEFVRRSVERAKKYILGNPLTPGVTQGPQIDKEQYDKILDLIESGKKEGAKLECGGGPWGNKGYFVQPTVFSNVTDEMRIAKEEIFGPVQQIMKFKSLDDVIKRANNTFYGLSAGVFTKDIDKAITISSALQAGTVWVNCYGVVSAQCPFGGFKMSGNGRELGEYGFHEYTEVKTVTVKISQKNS

[4] = molecular target: T4, Aldehyde dehydrogenase 1A1 (Homo sapiens) (UniProt P00352); test: as §1, with “ALDH1A1” for “ALDH1A2”
T4 sequence (whole entry): T3 sequence (P00352 whole entry)

[5] = molecular target: T5, Retinaldehyde dehydrogenase 3 (Homo sapiens) (UniProt P47895); test: Activation of full length recombinant human ALDH1A3 expressed in Escherichia coli BL21(DE3) preincubated for 2 mins followed by addition of propionaldehyde as substrate in presence of NAD+ by spectrophotometric method relative to control
T5 sequence (whole entry): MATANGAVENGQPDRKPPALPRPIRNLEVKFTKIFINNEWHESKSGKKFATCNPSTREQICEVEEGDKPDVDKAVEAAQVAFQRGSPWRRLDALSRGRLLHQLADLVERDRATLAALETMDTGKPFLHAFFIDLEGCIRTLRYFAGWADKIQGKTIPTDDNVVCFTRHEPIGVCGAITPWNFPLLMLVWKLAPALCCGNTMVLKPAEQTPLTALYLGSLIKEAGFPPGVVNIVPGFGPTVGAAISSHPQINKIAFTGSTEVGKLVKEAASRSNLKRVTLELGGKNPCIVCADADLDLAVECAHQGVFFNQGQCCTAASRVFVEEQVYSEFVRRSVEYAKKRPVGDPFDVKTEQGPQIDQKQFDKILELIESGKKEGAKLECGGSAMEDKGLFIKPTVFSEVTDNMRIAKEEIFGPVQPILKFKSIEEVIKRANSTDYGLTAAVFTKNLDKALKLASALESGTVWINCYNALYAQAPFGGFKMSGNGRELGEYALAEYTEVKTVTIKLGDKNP

[6] = molecular target: T6, Aldehyde dehydrogenase X, mitochondrial (Homo sapiens, UniProt P30837)
T6 sequence (P30837 whole entry): T2 sequence (whole entry)
Description: Inhibition of full length recombinant human ALDH1B1 expressed in Escherichia coli TunerDE3 assessed as reduction in dehydrogenase activity by measuring NAD(P)H level preincubated for 2 mins followed by addition of propionaldehyde as substrate in presence of NAD+ by spectrophotometric method

[7] = molecular target: T7, Retinaldehyde dehydrogenase 3 (Homo sapiens, UniProt P47895); test: Activation of full length recombinant human ALDH1A3 expressed in Escherichia coli BL21(DE3) preincubated for 2 mins followed by addition of propionaldehyde as substrate in presence of NAD+ by spectrophotometric method
T7 sequence (P47895 whole entry): T5 sequence (whole entry)

[8] = molecular target: T8, Retinal dehydrogenase 2 (Homo sapiens, UniProt O94788)
T8 sequence (O94788 whole entry): T1 sequence (whole entry)

[9] = molecular target: T7, Retinaldehyde dehydrogenase 3
Description: Inhibition of full length recombinant human ALDH1A3 expressed in Escherichia coli BL21(DE3) assessed as reduction in dehydrogenase activity by measuring NAD(P)H level preincubated for 2 mins followed by addition of propionaldehyde as substrate in presence of NAD+ by spectrophotometric method

[10] = molecular target: T5, Retinaldehyde dehydrogenase 3 (Homo sapiens); test: as §1, with “ALDH1A3” for “ALDH1A2”

Cc1oc2cc3oc(=O)c(C)c(C)c3cc2c1C
Imax [1]: 60%
Imax [2]: 60%

Cc1oc2cc3oc(=O)c(CCC(=O)N4CCCCC4)c(C)c3cc2c1C
Ki [3]: 170 nM

CCCc1c(C)c2cc3c(C)coc3cc2oc1=O
Imax [4]: 60%

C/C(=N\O)c1cc2cc(Br)ccc2oc1=O
%max [5]: 200%
IC50 [6]: Not Active
AC50 [7]: 35000 nM
IC50 [8]: Not Active

COC(=O)C(C)Oc1ccc2c(C)cc(=O)oc2c1 (stereo not given)
IC50 [9]: Not Active
IC50 [6]: Not Active
IC50 [8]: Not Active

CCCc1cc(=O)oc2cc3oc(C)c(C)c3cc12
%max [5]: 200%
AC50 [7]: 870 nM

Cc1oc2cc3oc(=O)c4c(c3cc2c1C)CCC4
Imax [10]: 50 to 60%
Imax [4]: 50 to 60%
